Laboratory results from patent publication US20180296523A1, “USE OF POLYMETHOXYLATED FLAVONES TO AMELIORATE CIRCADIAN RHYTHM DISORDERS” (THE BOARD OF REGENTS OF THE UNIVERSITY OF TEXAS SY, priority 2017, published 2018).

Columns and labels:
[1] = target: T1, RORα-LBD (Homo sapiens, UniProt P35398); experiment: Radioligand receptor binding assay with 25-[3H]-OHC, RORα-LBD; conditions: for competitive binding to RORα-LBD: in the presence of 4.5 nM 25-[3H]-OHC
T1 sequence (P35398 272-510 limits assumed): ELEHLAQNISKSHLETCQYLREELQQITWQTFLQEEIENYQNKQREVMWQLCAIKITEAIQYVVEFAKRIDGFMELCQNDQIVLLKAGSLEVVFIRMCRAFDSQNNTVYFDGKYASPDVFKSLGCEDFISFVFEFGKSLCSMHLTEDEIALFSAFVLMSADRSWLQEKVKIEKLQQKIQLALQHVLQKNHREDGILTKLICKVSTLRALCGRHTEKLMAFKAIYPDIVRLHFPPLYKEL
Protocol: (§1) Ligand binding was determined by filter binding assays to calculate the Kd value. […] Ki was determined using the Cheng-Prusoff equation.

[2] = target: T2, GAL4 DBD-RORα LBD (Mus musculus, UniProt P51448); experiment: Mammalian one-hybrid reporter assay in HEK293T cells, GAL4-RORα; format: cell-based; conditions: ligand interaction reduces transcriptional activity
T2 construct: mouse RORα-LBD (aa 261-523); expressed in transfected cells; host or cells: HEK293T
T2 sequence (P51448 261-523): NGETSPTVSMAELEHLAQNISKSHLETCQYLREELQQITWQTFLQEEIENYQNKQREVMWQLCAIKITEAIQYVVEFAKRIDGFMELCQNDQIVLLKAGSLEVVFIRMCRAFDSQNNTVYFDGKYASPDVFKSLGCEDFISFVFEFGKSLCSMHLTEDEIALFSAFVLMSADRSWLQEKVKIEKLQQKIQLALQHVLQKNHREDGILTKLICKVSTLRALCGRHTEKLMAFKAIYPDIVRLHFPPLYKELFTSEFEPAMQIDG
Excerpt: (§2) Plasmids containing the retinoic acid-related orphan receptor response element (RORE) from mouse Bmal1 promoter, pcDNA3.1B-G4DBD-RORαLBD and pcDNA3.1BG4DBD-RORγLBD were constructed in our lab. Specifically, the 1960 bp sequences (−1830/+130) of the mouse Bmal1 promoter harboring either WT ([…] (SEQ ID NO:1) and […] (SEQ ID NO:2)) or mutant ([…] (SEQ ID NO:3)) RORE were PCR amplified from mouse genomic DNA and cloned into pGL3-promoter luciferase vector. For expression of RORα or RORγ-GAL4 protein, mouse RORα-LBD (aa 261-523) or RORγ-LBD (aa 250-516) were PCR amplified from mouse genomic DNA and cloned into a GAL4-DBD-containing vector, pcDNA3.1B.
(§3) For mammalian one-hybrid assays, HEK293T cells were cotransfected with pcDNA3.1B-G4DBD-RORα/γLBD, pGL4.31 and TK promoter Renilla luciferase construct (tK.pRL). To investigate the regulation of the Bmal1 reporter, Hepa1-6 cells were cotransfected with Bmal1-WT or mutant RORE reporter plasmids, RORα, RORγ or Rev-erbα expression construct along with tK.pRL. Mouse and human siRNA targeting RORα and RORγ were purchased from Santa Cruz. Transfection was performed by Lipfectamine 2000 reagent (Invitrogen) Twenty-four hours after transfection, the cells were treated with vehicle or NOB. Lysates were collected 24 h after treatment, and firefly and Renilla luciferase activities were measured by using a Dual-Luciferase Reporter System (Promega).
(§4) For radio-ligand receptor binding assays, previously described protocols with minor modifications (Kumar et al., 2010; Wang et al., 2010b) were adopted.

[3] = target: T3, GAL4 DBD-RORγ LBD (Mus musculus, UniProt P51450); experiment: Mammalian one-hybrid reporter assay in HEK293T cells, GAL4-RORγ; format: cell-based; conditions: ligand interaction reduces transcriptional activity
T3 construct: RORγ-LBD (aa 250-516); expressed in transfected cells; host or cells: HEK293T
T3 sequence (P51450 250-516): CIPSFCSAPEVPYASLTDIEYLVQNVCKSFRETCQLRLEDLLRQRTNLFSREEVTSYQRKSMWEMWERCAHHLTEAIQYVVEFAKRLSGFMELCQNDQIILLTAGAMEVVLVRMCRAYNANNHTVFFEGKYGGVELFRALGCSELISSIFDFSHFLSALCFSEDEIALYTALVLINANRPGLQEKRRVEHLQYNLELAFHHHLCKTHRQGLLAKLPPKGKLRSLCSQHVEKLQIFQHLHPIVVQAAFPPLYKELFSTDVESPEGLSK
Excerpt: as §2, §3, §4

[4] = tested on: Clock^Δ19/+ PER2::Luc reporter cells; experiment: High-throughput chemical screen, PER2::Luc reporter rhythm; format: cell-based, mouse; conditions: for PER2::Luc reporter rhythm / circadian amplitude: Clock^Δ19/+ cells, forskolin pre-stimulated
Protocol: Specifically, the chemical screen for circadian clock modulators was conducted at the Chemical Genomics Core facility at the University of Texas Health Science Center at Houston (UTHSC-H). The in-house chemical library screened consisted of compounds from the National Institutes of Health (NIH) Clinical Collection, National Cancer Institute collection, and Microsource Spectrum Collection. Screening was conducted largely on the basis of the protocol previously described (Chen et al., 2012). […] Upon confluency, cells were incubated with 5 μM forskolin for 1-2 hr, followed by the addition of chemical compounds to the plates with robotic arms (Beckman), and then subjected to continuous monitoring over several days in a temperature-controlled EnVision microplate reader (Perkin Elmer). Data analysis was carried out by using the MultiCycle software (Actimetrics) for measurement of period, phase, and amplitude. The chemical screen for circadian clock modulators was conducted at the Chemical Genomics Core facility at the UTHSC-H. The in-house chemical library screened consists of compounds from NIH Clinical Collection, NCI collection and Microsource Spectrum Collection. The screening was conducted largely based on the protocol previously described (Chen et al., 2012). […] Cells were then incubated with 5 μM forskolin for 1-2 h followed by the addition of chemical compounds to the plates with robotic arms (Beckman), and then subjected to continuous monitoring over several days in a temperature-controlled EnVision microplate reader (Perkin Elmer). Data analysis was carried out by using the MultiCycle software (Actimetrics) for measurement of period, phase, and amplitude. […] Tissue explant experiments were conducted as described previously (Chen et al., 2012).

[5] = tested on: PER2::LucSV reporter fibroblast cells; experiment: Dose response validation of reporter rhythm in PER2::LucSV cells; format: cell-based, mouse; conditions: PER2::LucSV reporter cells
Protocol: The chemical screen for circadian clock modulators was conducted at the Chemical Genomics Core facility at the UTHSC-H. The in-house chemical library screened consists of compounds from NIH Clinical Collection, NCI collection and Microsource Spectrum Collection. The screening was conducted largely based on the protocol previously described (Chen et al., 2012). […] Cells were then incubated with 5 μM forskolin for 1-2 h followed by the addition of chemical compounds to the plates with robotic arms (Beckman), and then subjected to continuous monitoring over several days in a temperature-controlled EnVision microplate reader (Perkin Elmer). Data analysis was carried out by using the MultiCycle software (Actimetrics) for measurement of period, phase, and amplitude. […] Tissue explant experiments were conducted as described previously (Chen et al., 2012).

[6] = target: T4, RORγ-LBD (Homo sapiens, UniProt P51449); experiment: Radioligand receptor binding assay with 25-[3H]-OHC, RORγ-LBD; conditions: in the presence of 4.5 nM 25-[3H]-OHC
T4 sequence (P51449 269-508 limits assumed): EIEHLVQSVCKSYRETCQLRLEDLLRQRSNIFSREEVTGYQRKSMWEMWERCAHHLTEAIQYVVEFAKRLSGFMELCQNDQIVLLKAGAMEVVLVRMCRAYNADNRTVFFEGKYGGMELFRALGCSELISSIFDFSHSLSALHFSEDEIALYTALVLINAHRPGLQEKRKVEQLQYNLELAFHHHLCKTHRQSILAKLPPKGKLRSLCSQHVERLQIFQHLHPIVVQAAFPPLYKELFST
Protocol: as §1

C[C@H](CCCC(C)(C)O)[C@H]1CC[C@H]2[C@@H]3CC=C4C[C@@H](O)CC[C@]4(C)[C@H]3CC[C@]12C [25-[3H]—OHC, 25-[3H]-hydroxycholesterol]
total number of binding sites (Bmax) ([1]; Scatchard plot, RORα): 100 fmol/mg of protein

CC(=O)Nc1nc(C)c(S(=O)(=O)Nc2ccc(C(O)(C(F)(F)F)C(F)(F)F)cc2)s1 [SR1001]
activity on GAL4-RORα chimeric receptor [2]: robust activities
activity on GAL4-RORγ chimeric receptor [3]: robust activities

O=C1C[C@@H](c2ccc(O)cc2)Oc2cc(O)cc(O)c21 [naringenin]
PER2::Luc reporter rhythm / circadian amplitude [4]: failed to enhance cellular circadian rhythms
reporter luminescence ([4]; PER2::LUC Clock^Δ19/+ reporter cells): did not enhance the reporter luminescence
reporter luminescence [5]: did not enhance the reporter luminescence
competitive binding to RORα-LBD [1]: no direct binding
competitive binding to RORα-LBD ([1]; listed as Naringenin): markedly diminished binding
competitive binding to RORγ-LBD [6]: no direct binding
competitive binding to RORγ-LBD ([6]; listed as Naringenin): markedly diminished binding

COc1ccc(-c2cc(=O)c3c(OC)c(OC)c(OC)c(OC)c3o2)cc1 [tangeretin]
PER2::Luc reporter rhythm / circadian amplitude [4]: similarly enhanced the PER2::Luc reporter rhythm
